Test results as given in patent publication US12428415B2, “Matriptase 2 inhibitors and uses thereof” (Disc Medicine, Inc., priority 2018, dated 2025).
Read-outs that look alike come from different tables or passages of the source.

Molecular target: T1, Human Recombinant Matriptase 2 (Homo sapiens, UniProt Q8IU80)
T1 construct: purchased Enzo Life Sciences (an in-house preparation was also used) ALX-201-752-1
T1 sequence (Q8IU80 1-811): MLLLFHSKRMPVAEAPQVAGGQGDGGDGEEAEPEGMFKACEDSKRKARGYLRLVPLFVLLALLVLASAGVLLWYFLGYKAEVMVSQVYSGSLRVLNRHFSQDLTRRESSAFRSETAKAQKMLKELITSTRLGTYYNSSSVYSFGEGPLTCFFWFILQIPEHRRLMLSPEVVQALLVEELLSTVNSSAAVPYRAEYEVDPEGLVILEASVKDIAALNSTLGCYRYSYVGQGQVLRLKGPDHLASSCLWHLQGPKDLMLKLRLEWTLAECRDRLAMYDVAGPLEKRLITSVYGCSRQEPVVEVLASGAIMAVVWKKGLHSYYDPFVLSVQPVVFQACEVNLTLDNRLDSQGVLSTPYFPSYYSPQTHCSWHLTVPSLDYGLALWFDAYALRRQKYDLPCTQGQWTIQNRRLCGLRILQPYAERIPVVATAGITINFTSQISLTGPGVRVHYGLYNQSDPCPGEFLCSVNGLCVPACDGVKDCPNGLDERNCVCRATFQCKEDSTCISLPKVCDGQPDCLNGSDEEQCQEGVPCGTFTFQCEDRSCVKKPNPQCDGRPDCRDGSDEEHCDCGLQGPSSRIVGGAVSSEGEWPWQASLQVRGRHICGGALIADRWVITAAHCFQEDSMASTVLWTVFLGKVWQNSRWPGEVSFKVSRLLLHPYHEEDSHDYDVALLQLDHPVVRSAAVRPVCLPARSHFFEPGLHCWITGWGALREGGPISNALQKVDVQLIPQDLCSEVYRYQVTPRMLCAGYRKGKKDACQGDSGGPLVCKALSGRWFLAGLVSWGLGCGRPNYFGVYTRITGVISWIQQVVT
Assay: Matriptase 2 fluorescence based inhibition assay, Method A (100 mM TRIS pH 9, 1 mg/mL BSA)
Assay type: biochemical
Settings: read-out: Mar-2 % inhibition at 1 uM
Description: Test compounds were evaluated for their potential to inhibit Human Recombinant Matriptase 2 (in-house and commercial protein from Enzo Life Sciences—cat log -ALX-201-752-1) using fluorescence based assay. The concentration of Recombinant Matriptase 2 and the substrate used in the assay was: 7 nM (commercial) and 15 nM (Inhouse Matriptase 2) and 100 μM (Boc-Gln-Ala-Arg-7-amido-4-methyl coumarin hydrobromide—Cat log: B4153-Sigma) respectively. The assay buffer used was 100 mM TRIS pH 9, 1 mg/mL BSA. The assay was performed using 384 well black flat bottom plate from grenier (Cat log: 781076) at 25° C. The enzyme and compound was preincubated for 30 mins, plate was read 60 mins after substrate addition at wavelength Ex: 360/Em: 480 nm. The final assay volume was 20 μl. Stock solution of compounds were initially prepared in DMSO and appropriate dilutions were made for screening and IC50 determination (final DMSO conc in the assay was 1%). All the measurements were carried out using the Spectramax M5, Molecular devices. The compounds were screened at 1 and 10 μM concentration and IC50 was determined for the interested compounds.
To determine IC50 values, dose response curves were generated by plotting percentage inhibition as a function of inhibitor concentration and the data was fitted to sigmoidal non-linear regression equation (variable slope) using Graph Pad prism software V7.

| SMILES | inhibition at 1 µM (at 1 uM, Assay Used = A) [%] | inhibition at 1 µM (1 uM, Assay Used A) [%] | other results |
| --- | --- | --- | --- |
| N=C(N)c1ccc2cc(C(=O)N3CCc4ccccc4C3)n(Cc3ccc(NC(=O)CCN)cc3)c2c1 [Compound I-378] | 0 to 25 | – | – |
| N=C(N)c1ccc2c(N)c(C(=O)N3CCc4ccccc4C3)n(CCS(=O)(=O)c3ccccc3)c2c1 [Compound I-352] | 0 to 25 | – | – |
| N=C(N)c1ccc2cc(C(=O)N3CCC(F)CC3)n(Cc3ccc(C(F)(F)F)cc3)c2c1 [Compound I-282] | 0 to 25 | – | – |
| N=C(N)c1ccc2cc(C(=O)N3CCC(CCN)CC3)n(CCc3ccccc3)c2c1 [Compound I-299] | 25 to 50 | – | – |
| CC(C)(O)CNC(=O)c1cc2ccc(C(=N)N)cc2n1Cc1ccc(C(N)=O)cc1 [Compound I-208] | 0 to 25 | – | – |
| CNC(=O)c1ccc(Cn2c(C(=O)NC3CCC(C)CC3)cc3ccc(C(=N)N)cc32)cc1 (centres unmarked) [Compound I-220, 6-Carbamimidoyl-1-(4-(methylcarbamoyl)benzyl)-N-(4-methylcyclohexyl)-1H-indole-2-carboxamide] | 0 to 25 | – | – |
| N=C(N)c1ccc2cc(C(=O)NC3CCC(N4CCCC4)CC3)n(Cc3ccc(C(N)=O)cc3)c2c1 (centres unmarked) [Compound I-188] | – | 25 to 50 | – |
| N=C(N)c1ccc2cc(C(=O)N3CCC(CCCC(N)=O)CC3)n(Cc3ccc(C(F)(F)F)cc3)c2c1 [Compound I-322] | 0 to 25 | – | – |
| N=C(N)NCCC1CCN(C(=O)c2cc3ccc(C(=N)N)cc3n2Cc2ccc3ccccc3c2)CC1 [Compound I-360] | 25 to 50 | – | – |
| N=C(N)c1ccc2cc(C(=O)Nc3cccc([N+](=O)[O-])c3)n(Cc3ccc(C(N)=O)cc3)c2c1 [Compound I-131] | – | 0 to 25 | – |
| CC(C)CCn1c(C(=O)N2CCC(F)(F)C2)cc2ccc(C(=N)N)cc21 [Compound I-273] | 0 to 25 | – | – |
| N=C(N)c1ccc2cc(C(=O)NC3CCN(C(=O)CCN)CC3)n(Cc3ccc(C(F)(F)F)cc3)c2c1 [Compound I-8, N-(1-(3-aminopropanoyl)piperidin-4-yl)-6-carbamimidoyl-1-(4-(trifluoromethyl)benzyl)-1H-indole-2-carboxamide] | – | 25 to 50 | – |
| N=C(N)c1ccc2cc(C(=O)NC34CC5CC(CC(O)(C5)C3)C4)n(Cc3ccc(C(N)=O)cc3)c2c1 [Compound I-197] | 0 to 25 | – | – |
| N/C(=N/O)c1ccc2cc(C(=O)N[C@H]3CC[C@H](N)CC3)n(Cc3cccc4ccccc34)c2c1 [Compound I-400] | – | – | inhibition at 1 µM (1 uM compound, Assay Used = A): 25 to 50% |
| N=C(N)c1ccc2cc(C(=O)N3CC[C@@H](N4CCOCC4)C3)n(Cc3ccc(C(N)=O)cc3)c2c1 [Compound I-333] | 0 to 25 | – | – |
| CNC(=O)c1ccc(Cn2c(C(=O)N3CCC(F)CC3)cc3ccc(C(=N)N)cc32)cc1 [Compound I-388] | 0 to 25 | – | – |
| N=C(N)c1ccc2cc(C(=O)N3CCC(F)CC3)n(Cc3ccc(C(N)=O)cc3)c2c1 [Compound I-326] | 0 to 25 | – | – |
| N=C(N)c1ccc2cc(C(=O)N[C@@H]3CC=CCC3)n(Cc3ccc(C(N)=O)cc3)c2c1 [Compound I-189] | – | 0 to 25 | – |
| C[C@@H](O)CNC(=O)c1cc2ccc(C(=N)N)cc2n1Cc1ccc(C(N)=O)cc1 [Compound I-207] | 0 to 25 | – | – |
| N=C(N)c1ccc2cc(C(=O)N3CCC(F)(F)C3)n(Cc3ccc(C(=O)NC4CC4)cc3)c2c1 [Compound I-387] | 0 to 25 | – | – |
| N=C(N)c1ccc2cc(C(=O)N[C@H]3CC[C@H](NC(=O)CCN)CC3)n(Cc3ccc(Oc4ccccc4)cc3)c2c1 [Compound I-242, N-((1r,4r)-4-(3-Aminopropanamido)cyclohexyl)-6-carbamimidoyl-1-(4-phenoxybenzyl)-1H-indole-2-carboxamide] | 25 to 50 | – | – |
| N=C(N)c1ccc2cc(C(=O)NC[C@H]3CCCNC3)n(CCS(=O)(=O)c3ccccc3)c2c1 [Compound I-51] | – | 25 to 50 | – |

| SMILES | inhibition at 1 µM (at 1 uM, Assay Used = A) [%] | inhibition at 1 µM (1 uM, Assay Used A) [%] | other results |
| --- | --- | --- | --- |
| N=C(N)c1ccc2cc(C(=O)N3CCC(F)CC3)n(Cc3ccc(NC(=O)CCN)cc3)c2c1 [Compound I-373] | 0 to 25 | – | – |
| CN(C)C(=O)COc1ccc(NC(=O)c2cc3ccc(C(=N)N)cc3n2Cc2ccc(C(N)=O)cc2)cc1 [Compound I-99] | – | 25 to 50 | – |
| N=C(N)c1ccc2cc(C(=O)Nc3ccc(F)cc3)n(Cc3ccc(C(N)=O)cc3)c2c1 [Compound I-59, 6-Carbamimidoyl-1-(4-carbamoylbenzyl)-N-(4-fluorophenyl)-1H-indole-2-carboxamide] | – | 0 to 25 | – |
| N=C(N)c1ccc2cc(C(=O)N[C@H]3CC[C@H](N)CC3)n(S(=O)(=O)c3ccc4ccccc4c3)c2c1 [Compound I-397] | – | – | inhibition at 1 µM (1 uM compound, Assay Used = A): 25 to 50% |
| N=C(N)c1ccc2cc(C(=O)N[C@H]3CC[C@H](N)CC3)n(CCc3cccc(Br)c3)c2c1 [Compound I-31] | – | 25 to 50 | – |
| N=C(N)c1ccc2cc(C(=O)NC3CCN(CCCN)CC3)n(Cc3ccc(C(F)(F)F)cc3)c2c1 [Compound I-6, N-(1-(3-Aminopropyl)piperidin-4-yl)-6-carbamimidoyl-1-(4-(trifluoromethyl)benzyl)-1H indole-2-carboxamide] | – | 25 to 50 | – |
| N=C(N)c1ccc2cc(C(=O)NCC3CCCCC3)n(Cc3ccc(C(=O)NC4CC4)cc3)c2c1 [Compound I-217, 6-Carbamimidoyl-N-(cyclohexylmethyl)-1-(4-(cyclopropylcarbamoyl)benzyl)-1H-indole-2-carboxamide] | 0 to 25 | – | – |
| CCc1ccc(-c2cccc(Cn3c(C(=O)NC4CCC(N)CC4)cc4ccc(C(=N)N)cc43)c2)cc1 (centres unmarked) [Compound I-238] | 25 to 50 | – | – |
| N=C(N)c1ccc2cc(C(=O)NCC3CCNCC3)n(Cc3ccc4ccccc4c3)c2c1 [Compound I-406, 6-carbamimidoyl-1-(naphthalen-2-ylmethyl)-N-(piperidin-4-ylmethyl)-1H-indole-2-carboxamide] | – | – | inhibition at 1 µM (1 uM compound, Assay Used = A): 25 to 50% |
| N=C(N)c1ccc2cc(C(=O)N3CCC(F)(F)CC3)n(Cc3ccc(C(F)(F)F)cc3)c2c1 [Compound I-283] | 0 to 25 | – | – |
| N=C(N)c1ccc2cc(C(=O)N[C@H]3CC[C@H](N)CC3)n(Cc3cccnc3)c2c1 [Compound I-18] | – | 25 to 50 | – |
| C#CCOc1cccc(NC(=O)c2cc3ccc(C(=N)N)cc3n2Cc2ccc(C(N)=O)cc2)c1 [Compound I-146] | – | 25 to 50 | – |
| N=C(N)c1ccc2cc(C(=O)N[C@H]3CC[C@H](N)CC3)n(Cc3ccc(C(N)=O)cc3)c2c1 [Compound I-184] | – | 25 to 50 | – |
| N=C(N)c1ccc2cc(C(=O)N[C@H]3CC[C@H](N)CC3)n(Cc3ccc(C(=O)O)cc3)c2c1 [Compound I-20, 4-((2-(((1r,4r)-4-aminocyclohexyl)carbamoyl)-6-carbamimidoyl-1H-indol-1-yl)methyl)benzoic Acid] | – | 25 to 50 | – |
| N=C(N)c1ccc2cc(C(=O)NC34CC5CC(CC(C5)C3)C4)n(Cc3ccc(Oc4ccc(F)cc4)cc3)c2c1 [Compound I-245] | 25 to 50 | – | – |
| N=C(N)c1ccc2cc(C(=O)N3CC[C@@H](F)C3)n(Cc3ccc(Oc4ccccc4)cc3)c2c1 [Compound I-313] | 0 to 25 | – | – |
| NCCC1CCN(C(=O)c2cc3ccc(/C(N)=N\O)cc3n2Cc2ccc(-c3ccccc3)cc2)CC1 [Compound I-380] | 0 to 25 | – | – |
| N=C(N)c1ccc2cc(C(=O)N3CCC(F)(F)C3)n(Cc3ccc(C(=O)NCCN)cc3)c2c1 [Compound I-392] | 0 to 25 | – | – |
| N=C(N)c1ccc2cc(C(=O)Nc3cccc(-c4cnco4)c3)n(Cc3ccc(C(N)=O)cc3)c2c1 [Compound I-163] | – | 0 to 25 | – |
| N=C(N)c1ccc2cc(C(=O)Nc3ccc(C(=O)N4CCC4)cc3)n(Cc3ccc(C(N)=O)cc3)c2c1 [Compound I-92] | – | 0 to 25 | – |
| C#Cc1cccc(NC(=O)c2cc3ccc(C(=N)N)cc3n2Cc2ccc(C(N)=O)cc2)c1 [Compound I-138] | – | 0 to 25 | – |
| N=C(N)c1ccc2cc(C(=O)Nc3ccc(-c4ccccc4)cc3)n(Cc3ccc(C(N)=O)cc3)c2c1 [Compound I-66] | – | 0 to 25 | – |
